Calls of active or inactive are those of the source. The calls are words filed in the database; no cut-off is given here.
How the values were obtained:
[1] = tested on: MV4-11; test: Cell cycle arrest in human MV4-11 cells assessed as accumulation of cells at S-phase at 0.04 uM measured after 24 hrs by propidium iodide staining based flow cytometry (reference value: 23.35%); assay type: functional
[2] = tested on: MV4-11; test: Cell cycle arrest in human MV4-11 cells assessed as accumulation of cells at G1-phase at 0.16 uM measured after 24 hrs by propidium iodide staining based flow cytometry (reference value: 61.42%); assay type: functional
[3] = tested on: MV4-11; test: Cell cycle arrest in human MV4-11 cells assessed as accumulation of cells at G1-phase at […] measured after 24 hrs by propidium iodide staining based flow cytometry (reference value: 61.42%); assay type: functional; conditions: dose 0.625 µM
[4] = tested on: MV4-11; test: Cell cycle arrest in human MV4-11 cells assessed as accumulation of cells at S-phase at 1.25 uM measured after 24 hrs by propidium iodide staining based flow cytometry (reference value: 23.35%); assay type: functional
[5] = tested on: MV4-11; test: Cell cycle arrest in human MV4-11 cells assessed as accumulation of cells at G1-phase at 2.5 uM measured after 24 hrs by propidium iodide staining based flow cytometry (reference value: 61.42%); assay type: functional
[6] = tested on: MV4-11; test: Cell cycle arrest in human MV4-11 cells assessed as accumulation of cells at S-phase at 2.5 uM measured after 24 hrs by propidium iodide staining based flow cytometry (reference value: 23.35%); assay type: functional
[7] = tested on: MV4-11; test: Cell cycle arrest in human MV4-11 cells assessed as accumulation of cells at S-phase at 5 uM measured after 24 hrs by propidium iodide staining based flow cytometry (reference value: 23.35%); assay type: functional
[8] = tested on: COLO 205; test: Antitumor activity against human COLO 205 cells xenografted in CD1 nu/nu mouse assessed as tumor growth inhibition at 25 to 100 mg/kg, po administered once daily via gavage for 21 days measured twice per week during compound dosing; assay type: functional, organism-based; conditions: dose 25-100 mg/kg, time 21.0 day
[9] = Toxicity in human COLO 205 cells xenografted CD1 nu/nu mouse assessed as change in jejunum histology at 50 mg/kg, po administered daily via gavage for 56 days and measured on day 41 to 69 by histopathological analysis; assay type: organism-based; conditions: in vivo, 1344 h, time 41-69 day
[10] = Toxicity in human COLO 205 cells xenografted CD1 nu/nu mouse assessed as change in jejunum histology at 50 mg/kg, po administered daily via gavage for 2 cycles of 3 weeks on/1 week rest and measured on day 41 to 69 by histopathological analysis; assay type: organism-based; conditions: in vivo, time 41-69 day
[11] = Toxicity in human COLO 205 cells xenografted CD1 nu/nu mouse assessed as change in ileum histology at 50 mg/kg, po administered daily via gavage for 56 days and measured on day 41 to 69 by histopathological analysis; assay type: organism-based; conditions: in vivo, 1344 h, time 41-69 day
[12] = Toxicity in human Calu-6 cells xenografted CD1 nu/nu mouse assessed as body weight loss at 50 mg/kg, po administered once daily via gavage for 21 days measured twice per week during compound dosing in presence of gemcitabine; assay type: organism-based; conditions: in vivo, time 21 day
[13] = Toxicity in human Calu-6 cells xenografted CD1 nu/nu mouse assessed as body weight loss at 50 mg/kg, po administered once daily via gavage for 12 days followed by gemcitabine addition for 4 days and measured twice per week during compound dosing; assay type: organism-based; conditions: in vivo, 384 h, time 16 day
[14] = tested on: COLO 205; conditions: Mus musculus, CD1, dose 50.0 mg/kg, route po, time lower 1.0 hrs, time upper […], TDE = time-dependent effect
[15] = tested on: COLO 205; conditions: Mus musculus, CD1, dose 50.0 mg/kg, route po
[16] = tested on: COLO 205; conditions: Mus musculus, CD1, dose 50.0 mg/kg, route po; remark: listed apart in the source
[17] = tested on: COLO 205; conditions: Mus musculus, CD1, dose 50.0 mg/kg, route po; remark: listed apart in the source
[18] = tested on: COLO 205; conditions: Mus musculus, CD1, dose 100.0 mg/kg, route po, time 21.0 day
[19] = tested on: Calu-6; conditions: Homo sapiens, dose 50.0 mg/kg, route po, time 16.0 day
[20] = species on record: Mus musculus; conditions: CD1, dose 50.0 mg/kg, route po, time 17.0 day
[21] = biological target: T1, Dual specificity tyrosine-phosphorylation-regulated kinase 2 (Homo sapiens) (UniProt Q92630); conditions: Sf21, dose 200.0 nM
T1 sequence (whole entry): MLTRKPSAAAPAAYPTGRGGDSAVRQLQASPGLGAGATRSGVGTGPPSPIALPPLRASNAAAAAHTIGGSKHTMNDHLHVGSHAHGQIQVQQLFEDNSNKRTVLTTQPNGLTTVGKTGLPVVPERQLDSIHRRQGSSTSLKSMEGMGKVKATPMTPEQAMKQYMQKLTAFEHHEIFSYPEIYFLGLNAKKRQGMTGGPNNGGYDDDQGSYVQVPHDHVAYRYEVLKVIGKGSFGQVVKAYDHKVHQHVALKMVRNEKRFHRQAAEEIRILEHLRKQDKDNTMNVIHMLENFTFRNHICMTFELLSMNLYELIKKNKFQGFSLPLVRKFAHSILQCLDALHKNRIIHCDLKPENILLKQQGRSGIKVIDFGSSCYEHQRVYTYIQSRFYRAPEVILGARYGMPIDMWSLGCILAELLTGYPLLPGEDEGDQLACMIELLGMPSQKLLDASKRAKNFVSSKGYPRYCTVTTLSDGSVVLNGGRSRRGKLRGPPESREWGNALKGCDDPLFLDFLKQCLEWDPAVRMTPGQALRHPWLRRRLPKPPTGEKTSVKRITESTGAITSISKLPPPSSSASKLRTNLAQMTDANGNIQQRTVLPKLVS
Description: Inhibition of recombinant human full-length 6His-tagged DYRK2 expressed in baculovirus infected Sf21 insect cells at 200 nM using casein as substrate relative to control

[22] = biological target: T2, Serine/threonine-protein kinase 17A (Homo sapiens) (UniProt Q9UEE5); conditions: Sf21, dose 200.0 nM
T2 sequence (whole entry): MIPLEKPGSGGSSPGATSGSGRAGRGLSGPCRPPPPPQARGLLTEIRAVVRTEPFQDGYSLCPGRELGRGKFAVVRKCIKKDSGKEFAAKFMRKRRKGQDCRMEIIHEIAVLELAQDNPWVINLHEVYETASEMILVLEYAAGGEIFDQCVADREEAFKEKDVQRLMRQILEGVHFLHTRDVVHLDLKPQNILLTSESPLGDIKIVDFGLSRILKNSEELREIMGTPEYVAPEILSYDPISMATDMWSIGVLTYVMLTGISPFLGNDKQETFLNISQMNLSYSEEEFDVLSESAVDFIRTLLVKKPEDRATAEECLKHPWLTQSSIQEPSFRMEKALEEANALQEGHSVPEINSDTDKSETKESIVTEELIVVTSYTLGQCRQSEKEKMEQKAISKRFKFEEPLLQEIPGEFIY
Description: Inhibition of recombinant human full-length N-terminal 6His-tagged DRAK1 expressed in baculovirus infected Sf21 cells at 200 nM using ZIPtide as substrate relative to control

[23] = biological target: Receptor-type tyrosine-protein kinase FLT3 (Homo sapiens) (UniProt P36888); conditions: Sf21, dose 200.0 nM
Sequence of Receptor-type tyrosine-protein kinase FLT3 (Homo sapiens) (P36888 whole entry): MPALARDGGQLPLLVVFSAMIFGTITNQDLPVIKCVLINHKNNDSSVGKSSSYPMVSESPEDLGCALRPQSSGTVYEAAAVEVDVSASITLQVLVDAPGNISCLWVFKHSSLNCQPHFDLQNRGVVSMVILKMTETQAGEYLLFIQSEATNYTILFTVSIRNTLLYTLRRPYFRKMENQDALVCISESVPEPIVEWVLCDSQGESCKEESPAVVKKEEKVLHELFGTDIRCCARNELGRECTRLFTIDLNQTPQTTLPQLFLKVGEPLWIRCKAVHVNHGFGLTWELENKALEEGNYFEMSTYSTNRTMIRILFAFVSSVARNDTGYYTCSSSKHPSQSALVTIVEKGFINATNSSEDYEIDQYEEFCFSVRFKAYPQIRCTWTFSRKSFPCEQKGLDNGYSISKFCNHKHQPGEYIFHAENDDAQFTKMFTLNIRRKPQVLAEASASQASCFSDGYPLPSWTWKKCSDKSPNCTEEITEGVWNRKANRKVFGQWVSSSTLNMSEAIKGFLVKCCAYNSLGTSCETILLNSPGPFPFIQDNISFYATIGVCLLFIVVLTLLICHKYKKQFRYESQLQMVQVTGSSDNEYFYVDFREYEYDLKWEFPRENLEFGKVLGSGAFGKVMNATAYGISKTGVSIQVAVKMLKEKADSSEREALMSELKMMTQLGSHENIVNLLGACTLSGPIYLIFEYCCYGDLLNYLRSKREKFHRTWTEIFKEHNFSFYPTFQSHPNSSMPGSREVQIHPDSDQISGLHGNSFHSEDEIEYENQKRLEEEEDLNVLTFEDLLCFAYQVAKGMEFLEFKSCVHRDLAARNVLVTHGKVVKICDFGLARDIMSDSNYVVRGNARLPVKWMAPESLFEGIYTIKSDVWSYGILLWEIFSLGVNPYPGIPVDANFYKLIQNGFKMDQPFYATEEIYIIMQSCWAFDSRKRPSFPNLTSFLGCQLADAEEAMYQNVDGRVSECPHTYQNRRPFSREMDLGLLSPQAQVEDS
Description: Inhibition of recombinant human N-terminal GST-tagged FLT3 (564 to end residues) expressed in baculovirus infected Sf21 cells at 200 nM using Abltide as substrate relative to control

`CCN1CCN(Cc2ccc(Nc3ncc(F)c(-c4cc(F)c5nc(C)n(C(C)C)c5c4)n3)nc2)CC1` [ABEMACICLIB] gave an Activity [1] of 16.32%, an Activity [2] of 92.68% and an Activity [3] of 94.63%. The Activity [4] was 4.18%, the Activity [5] was 94.06% and the Activity [6] was 2.99%. The Activity [7] was 3.9%, the TGI [8] was “Active” and the Activity [9] was “Non-Toxic”. For the same compound, the Activity [10] was “Non-Toxic”, the Activity [11] was “Non-Toxic” and the Activity [12] was “Non-Toxic”. For the same compound, the Activity [13] was “Non-Toxic”, the inhibition [14] was “Tde” and the inhibition [15] was “Active”. The inhibition [16] was “Active”, the inhibition [17] was “inactive” and the inhibition [18] was “Active”. For the same compound, the TGI [19] was “Active”, the inhibition [20] was “inactive” and the inhibition [21] was over 90%. The inhibition [22] was over 90% and the inhibition [23] was over 90%.
